In patent publication US20230227492A1 (priority 2020, published 2023):
Like-named read-outs stand apart in the source and are kept apart here.

Columns and labels:
[1] = molecular target: T1, human PR ligand-binding domain tagged with GST [PR-LBD (GST)] (Homo sapiens, UniProt P06401); assay: PR fluorescence polarization (FP) binding assay; details: Fluormone PL Green
T1 construct: purchased Life Technologies (Carlsbad, Calif.)
T1 sequence (P06401 679-913 limits assumed): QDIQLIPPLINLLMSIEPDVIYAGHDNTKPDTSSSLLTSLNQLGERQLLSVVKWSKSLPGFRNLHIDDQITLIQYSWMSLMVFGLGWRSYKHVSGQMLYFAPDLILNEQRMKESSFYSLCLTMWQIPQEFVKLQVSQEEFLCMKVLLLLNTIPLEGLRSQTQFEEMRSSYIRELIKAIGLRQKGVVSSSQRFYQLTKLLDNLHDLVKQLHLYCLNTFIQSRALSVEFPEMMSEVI
Method: (§1) Receptor Binding Assay Information—In certain of the following examples, hormone receptor binding assays were used to determine the receptor binding activities of monomeric compound embodiments to androgen (AR), progesterone (PR), estrogen alpha (ERα) or glucocorticoid (GR) receptors. For AR, PR or ERα, the respective receptors are added to novel, tight-binding, selective ligands tagged with a fluorescent molecule, to form a receptor-ligand complex with a high polarization value. This complex is then added to individual monomeric compound embodiments that are contained in well plates. If the monomeric compound binds to the respective receptors, it displaces the fluorescent ligand from the complex, resulting in a low polarization value. In such embodiments, the monomeric compound is characterized as a competitor. […] In such embodiments, the monomeric compound is characterized as a noncompetitor. The shift in polarization value in the presence of the monomeric compound is used to determine the relative affinity of monomeric compound for the receptor.
For the androgen, progesterone, and estrogen receptor binding assays described herein, the preparation of reagents and test procedures is performed according to the manufacturer's instructions (Life Technologies, Carlsbad, Calif.). The plates are covered to protect the reagents from light and incubated at 20-25° C. for 4-8 hrs. The fluorescence polarization of the samples is measured with 485 nm excitation and 530 nm emission interference filters.
In this example, PR binding activity was assessed using the PR fluorescence polarization (FP) assay, which provides a sensitive and efficient method for high-throughput screening of potential PR ligands. The kit uses human PR ligand-binding domain tagged with GST [PR-LBD (GST)], and a tight-binding, selective fluorescent progesterone ligand (Fluormone™ PL Green) in a homogenous mix-and-read assay format. Progesterone receptor [PR-LBD (GST)] was added to a fluorescent progesterone ligand (Fluormone™ PL Green) to form a PR-LBD (GST)/Fluormone™ PL Green complex resulting in a high polarization value. This complex was then added to individual compound embodiments in 96-well plates. Competitors displaced the fluorescent Fluormone™ PL Green ligand from the PR-LBD (GST)/Fluormone™ PL Green complex, causing the fluorescent ligand to tumble rapidly during its fluorescence lifetime, resulting in a low polarization value. […] The shift in polarization value in the presence of compound embodiments was used to determine relative affinity of compound embodiments for PR-LBD (GST). The fluorescence polarization of the samples was measured with 485 nm excitation and 530 nm emission interference filters. Results for monomeric compound embodiments wherein the R^2 groups is not present (such as to test compound activity after R^2 cleavage) are provided in Table 4.

[2] = molecular target: T2, rat AR ligand-binding domain tagged with His and GST [AR-LBD (His-GST)] (Rattus norvegicus, UniProt P15207); assay: AR fluorescence polarization (FP) binding assay; details: Fluormone AL Green
T2 construct: purchased Life Technologies (Carlsbad, Calif.)
T2 sequence (P15207 651-882 limits assumed): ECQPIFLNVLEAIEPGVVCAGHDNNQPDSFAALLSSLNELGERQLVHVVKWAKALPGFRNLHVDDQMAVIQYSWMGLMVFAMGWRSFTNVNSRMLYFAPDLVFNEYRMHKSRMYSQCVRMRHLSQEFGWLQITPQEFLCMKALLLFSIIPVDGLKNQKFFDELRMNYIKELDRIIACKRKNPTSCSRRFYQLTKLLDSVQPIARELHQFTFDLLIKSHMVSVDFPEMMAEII
Method: as §1
(§2) For the androgen, progesterone, and estrogen receptor binding assays described herein, the preparation of reagents and test procedures is performed according to the manufacturer's instructions (Life Technologies, Carlsbad, Calif.). The plates are covered to protect the reagents from light and incubated at 20-25° C. for 4-8 hrs.
In this example, AR binding activity and ER binding activity of certain reference compounds and monomeric compound embodiments wherein the R^2 group is not present was assessed (such as to test compound activity after R^2 cleavage). The AR fluorescence polarization (FP) assay was used and provides a sensitive and efficient method for high-throughput screening of potential AR ligands. The kit uses rat AR ligand-binding domain tagged with His and GST [AR-LBD (His-GST)], and a tight-binding, selective fluorescent androgen ligand (Fluormone™ AL Green) in a homogenous mix-and-read assay format. The androgen receptor [AR-LBD (His-GST)] was added to a fluorescent androgen ligand (Fluormone™ AL Green) to form an AR-LBD (His-GST)/Fluormone™ AL Green complex resulting in a high polarization value. This complex was then added to individual compound embodiments in 96-well plates. Competitors displaced the fluorescent Fluormone™ AL Green ligand from the AR-LBD (His-GST)/Fluormone™ AL Green complex, causing the fluorescent ligand to tumble rapidly during its fluorescence lifetime, resulting in a low polarization value. […] The shift in polarization value in the presence of compound embodiments used to determine relative affinity of compound embodiments for AR-LBD (His-GST).

[3] = molecular target: T3, human full-length androgen receptor (Homo sapiens, UniProt P10275); assay: AR Transactivation Assay (MMTV-luciferase, HEC-1-B cells); type: cell-based
T3 sequence (P10275 1-920): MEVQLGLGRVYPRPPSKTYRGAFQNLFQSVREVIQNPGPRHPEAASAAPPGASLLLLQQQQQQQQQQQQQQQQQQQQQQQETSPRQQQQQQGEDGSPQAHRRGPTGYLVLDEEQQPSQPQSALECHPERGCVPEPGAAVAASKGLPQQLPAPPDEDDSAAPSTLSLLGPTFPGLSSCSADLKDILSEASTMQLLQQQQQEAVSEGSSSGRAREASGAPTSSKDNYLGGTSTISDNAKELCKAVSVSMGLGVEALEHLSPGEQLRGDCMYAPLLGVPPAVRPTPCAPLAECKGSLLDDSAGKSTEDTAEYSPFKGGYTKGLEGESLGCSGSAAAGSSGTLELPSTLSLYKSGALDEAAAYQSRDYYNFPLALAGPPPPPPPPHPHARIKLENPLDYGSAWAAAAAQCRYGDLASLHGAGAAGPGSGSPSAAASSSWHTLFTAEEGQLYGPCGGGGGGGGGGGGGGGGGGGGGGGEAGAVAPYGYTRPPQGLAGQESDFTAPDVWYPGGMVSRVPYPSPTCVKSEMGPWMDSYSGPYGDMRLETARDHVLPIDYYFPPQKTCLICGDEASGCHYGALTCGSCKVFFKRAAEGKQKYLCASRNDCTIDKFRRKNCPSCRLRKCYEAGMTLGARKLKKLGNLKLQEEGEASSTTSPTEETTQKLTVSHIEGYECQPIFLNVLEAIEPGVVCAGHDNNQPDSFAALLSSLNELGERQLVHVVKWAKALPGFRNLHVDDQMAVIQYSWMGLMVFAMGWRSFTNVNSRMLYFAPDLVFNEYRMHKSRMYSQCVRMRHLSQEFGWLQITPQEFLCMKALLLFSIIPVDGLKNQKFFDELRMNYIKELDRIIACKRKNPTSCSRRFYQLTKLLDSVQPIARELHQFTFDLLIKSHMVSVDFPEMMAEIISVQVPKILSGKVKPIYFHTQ

[4] = molecular target: T4, full-length, untagged, human estrogen receptors (ERα) (Homo sapiens, UniProt P03372); assay: ERα fluorescence polarization (FP) binding assay
T4 construct: insect cell-expressed, full-length, untagged, human estrogen receptors; purchased Life Technologies (Carlsbad, Calif.); host or cells: insect cells
T4 sequence (P03372 whole entry): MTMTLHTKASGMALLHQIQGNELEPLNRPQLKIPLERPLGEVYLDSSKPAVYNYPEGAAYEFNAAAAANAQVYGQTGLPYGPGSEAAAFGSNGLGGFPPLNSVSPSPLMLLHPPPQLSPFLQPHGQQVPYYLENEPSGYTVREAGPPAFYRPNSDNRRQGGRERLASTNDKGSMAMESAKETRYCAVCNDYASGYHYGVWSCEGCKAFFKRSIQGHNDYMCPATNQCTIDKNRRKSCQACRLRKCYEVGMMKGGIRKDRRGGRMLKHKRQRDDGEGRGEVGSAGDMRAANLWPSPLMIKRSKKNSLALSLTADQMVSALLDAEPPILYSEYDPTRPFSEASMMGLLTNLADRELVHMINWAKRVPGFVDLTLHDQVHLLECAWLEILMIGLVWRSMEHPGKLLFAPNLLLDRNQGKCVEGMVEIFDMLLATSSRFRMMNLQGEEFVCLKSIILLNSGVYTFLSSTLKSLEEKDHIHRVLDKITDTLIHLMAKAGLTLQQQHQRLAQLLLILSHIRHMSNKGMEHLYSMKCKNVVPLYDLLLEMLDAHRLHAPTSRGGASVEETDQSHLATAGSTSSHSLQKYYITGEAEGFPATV
Method: as §1, §2
For ERα data, the ERα fluorescence polarization (FP) assay was used, which provides a sensitive and efficient method for high-throughput screening of potential ER ligands. The kit uses insect cell-expressed, full-length, untagged, human estrogen receptors and a tight-binding, fluorescent estrogen ligand (Fluormone™ ES2) in a homogenous mix-and-read assay format. ERα was added to a fluorescent estrogen ligand to form an ERα/Fluormone™ ES2 complex. This complex was then added to individual compound embodiments contained in 96-well plates. […] The change in polarization value in the presence of a compound embodiment was used to determine relative affinity of a compound embodiment for ERα.

[5] = human, plasma
castrated weanling rats = details: rat, in vivo
[6] = tested on: castrated Sprague-Dawley male rats; assay: Hershberger assay, ventral prostate weights (7α-methyl testosterone); type: in vivo, rat
[7] = molecular target: T5, recombinant human aromatase (Homo sapiens, UniProt P11511); assay: Aromatization by recombinant human aromatase (CYP19+P450 reductase Supersomes); details: 10 μM, 37° C.
T5 sequence (P11511 1-503): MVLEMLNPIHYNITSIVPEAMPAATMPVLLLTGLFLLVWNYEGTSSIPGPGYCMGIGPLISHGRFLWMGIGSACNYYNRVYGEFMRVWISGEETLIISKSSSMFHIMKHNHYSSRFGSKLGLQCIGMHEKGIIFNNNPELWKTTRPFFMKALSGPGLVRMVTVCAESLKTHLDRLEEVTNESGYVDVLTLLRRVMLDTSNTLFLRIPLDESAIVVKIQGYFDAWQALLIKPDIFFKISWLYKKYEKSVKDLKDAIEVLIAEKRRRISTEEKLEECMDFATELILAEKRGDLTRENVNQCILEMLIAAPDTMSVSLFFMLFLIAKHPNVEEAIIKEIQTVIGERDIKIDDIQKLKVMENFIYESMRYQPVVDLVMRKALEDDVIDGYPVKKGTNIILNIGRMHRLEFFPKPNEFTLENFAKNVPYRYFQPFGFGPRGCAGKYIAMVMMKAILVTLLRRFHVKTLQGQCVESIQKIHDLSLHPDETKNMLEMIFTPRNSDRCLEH

[8] = fluorescence polarization, Fluormone ES2, read-out: IC50 (nM) ERα

| SMILES | IC50 ([1]; read-out: IC50 (nM) PR binding) [nM] | IC50 (nM) AR [2] [nM] | IC50 [4, 8] [nM] | % remaining at 15 min [7] [%] | % remaining at 30 min [7] [%] | % remaining at 60 min [7] [%] | other results |
| --- | --- | --- | --- | --- | --- | --- | --- |
| CC1Cc2cc(O)ccc2C2CCC3(C)C(O)CCC3C12 (stereo not drawn) [CDB 4915, 7α-methyl estradiol] | 502 | 20.1 | 10.3 |  |  |  | EC50 [3]: 39 nM |
| CC1CC2(C)C(O)CCC2C2C(C)Cc3cc(O)ccc3C12 (stereo not drawn) [CDB 4916, 7α, 11β-dimethyl estradiol] | 165 | 17.8 | 13.8 |  |  |  | EC50 [3]: 3.68 nM |
| CC1CC2(C)C(O)CCC2C2CCc3cc(O)ccc3C12 (stereo not drawn) [CDB 4917, 11β-methyl estradiol] | 120 | 12.8 | 12 |  |  |  |  |
| C[C@@H]1CC2=CC(=O)CC[C@@H]2[C@H]2CC[C@]3(C)[C@@H](O)CC[C@H]3[C@@H]21 [CDB-902, 7-α-methylnortestosterone, reference compound] |  |  |  |  |  |  | Parent molecule % remaining after 24 hours at 37° C. [5]: 100≤ % |
| C[C@@H]1CC2=CC(=O)CCC2C2C1C1CC[C@H](OC(=O)CCCCCCCCCCC(=O)O[C@H]3CCC4C5C(C6CCC(=O)C=C6C[C@H]5C)[C@@H](C)C[C@@]43C)[C@@]1(C)C[C@@H]2C (stereo partly drawn) [CDB-4867] |  |  |  |  |  |  | AUC (Levator ani muscle) (castrated weanling rats): 5059 mg*week; AUC (Ventral Prostate) (castrated weanling rats): 529.5 mg*week; duration of levator ani muscle weight increase (anabolic effects) (castrated weanling rats): sustained until Day 99 (Week 14); duration of ventral prostate weight increase (androgenic effects) (castrated weanling rats): sustained until Day 99 (Week 14); ventral prostate gland weights relative to vehicle (castrated weanling rats): increased; Parent molecule % remaining after 24 hours at 37° C. ([5]; male): 100≤ % |
| CC1CC2(C)C(O)CCC2C2CCC3=CC(=O)CCC3=C12 (stereo not drawn) [CDB-4890, 11β, 4,9 diene-MNT] | 43.5 | 15.5 | 6680 |  |  |  |  |
| C[C@@H]1CC2=CC(=O)CC[C@]2(C)C2CC[C@@]3(C)C(CC[C@@H]3O)C21 (stereo partly drawn) [CDB-4910, 7α-methyl testosterone] |  |  |  | 57.6 | 20.2 | 0.1 | IC50 ([1]; IC50 (nM) PR binding): 395 nM; Ventral Prostate (weight in gram) ([6]; Conc. in mmole 0.7): 0.076 gram; Ventral Prostate (weight in gram) ([6]; Conc. in mmole 2.8): 0.13 gram; Ventral Prostate (weight in gram) ([6]; Conc. in mmole 11.2): 0.14 gram; IC50 [4]: 7830 nM |
| C[C@@H]1CC2CC(=O)CC[C@]2(C)C2CC[C@@]3(C)C(CC[C@@H]3O)C21 (stereo partly drawn) [CDB-4922, 7α-methyldihydro testosterone] |  | 57.1 |  | 66.8 | 38.0 | 10.1 | IC50 ([1]; IC50 (nM) PR binding): 1890 nM; IC50 [4]: 26300 nM |
| C[C@]12CC[C@H]3[C@@H](CCC4=CC(=O)CC[C@@]43C)[C@@H]1CC[C@@H]2O [Testosterone, reference compound] |  |  |  | 31.4 | 0.1 | 0.1 | Ventral Prostate (weight in gram) ([6]; Conc. in mmole 6.9): 0.12 gram |
